Like-named read-outs stand apart in the source and are kept apart here.
Columns and labels:
URAT1 = target: T1, URAT1 (Homo sapiens, UniProt Q96S37); assay: Inhibition of [14C] uric acid uptake by URAT1 in MDCK-URAT1 cells; format: cell-based; conditions: for IC50: MDCK-URAT1 cells, 100 μM [14C] uric acid
T1 construct: expressed in transfected cells
T1 sequence (Q96S37 1-553): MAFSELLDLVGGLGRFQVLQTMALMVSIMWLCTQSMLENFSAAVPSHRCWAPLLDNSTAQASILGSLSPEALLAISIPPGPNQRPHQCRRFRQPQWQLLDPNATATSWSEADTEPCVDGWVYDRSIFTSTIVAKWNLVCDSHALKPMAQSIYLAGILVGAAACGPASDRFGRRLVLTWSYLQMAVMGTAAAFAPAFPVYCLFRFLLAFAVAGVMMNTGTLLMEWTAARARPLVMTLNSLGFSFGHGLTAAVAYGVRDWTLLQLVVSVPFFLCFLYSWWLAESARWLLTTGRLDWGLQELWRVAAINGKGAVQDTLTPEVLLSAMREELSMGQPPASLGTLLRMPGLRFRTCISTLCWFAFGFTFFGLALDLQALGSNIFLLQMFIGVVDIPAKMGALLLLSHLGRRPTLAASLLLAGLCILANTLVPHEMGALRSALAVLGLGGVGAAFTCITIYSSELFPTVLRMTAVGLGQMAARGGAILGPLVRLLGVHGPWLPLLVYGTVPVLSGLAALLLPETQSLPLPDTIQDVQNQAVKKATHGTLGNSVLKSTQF
Experimental: cDNA of URAT1 was introduced into MDCK cells and stably expressing cells (MDCK-URAT1) were created. […] Experiments are carried out each three times and level of IC50 was analyzed by profit.
cDNA of URAT1 which was integrated into mammal expression vector pcDNA3.1, or pcDNA3.1 was gene transfected to MDCK cells to create stably expressing cells (MDCK-URAT1) and mock cells.
This MDCK-URAT1 was cultured in the minimal essential medium containing 5% fetal bovine serum and 400 μg/mL geneticin, cells were placed in 24-well dish (as many as 10^5 cells per one well) and cultured for 2 days. After that, it was washed with Dulbecco's modified PBS and subjected to pre-incubation in the Dulbecco's modified PBS solution for 10 min.
After that, it was washed with Dulbecco's modified PBS solution three times and cells were collected by 0.1N NaOH. Scintillation cocktail was then added to count dpm of [^14C] uric acid being taken in cells by liquid scintillation counter. Values of IC50 were analyzed by profit.

[1] = target: T2, xanthine oxidase derived from bovine milk (Bos taurus, UniProt P80457); assay: Xanthine oxidase inhibitory activity (absorbance 292 nm, xanthine substrate); format: biochemical; conditions: for IC50: 100 μM xanthine, 37° C., pH 7.4, read-out: IC50 level, xanthine oxidase
T2 construct: xanthine oxidase derived from bovine milk; from tissue; host or cells: bovine milk
Experimental: Subsequently, xanthine oxidase inhibitory activity of 6-hydroxybenzbromarone was investigated. Activity of xanthine oxidase derived from bovine milk was checked as follows: Using 100 μM of xanthine as the substrate, and using a system for measuring chronologically the absorbance (292 nm) of […] generated at 37° C. in 1/15 M phosphate buffer solution (pH 7.4) in which 0.1 M phosphate buffer solution was diluted by half volume of water, inhibitory activity of 6-hydroxybenzbromarone or of oxypurinol that is a metabolic product of allopurinol was measured to analyze IC50.
Activity of xanthine oxidase derived from bovine milk was analyzed as follows.

[2] = Clinical pharmacokinetic test, single dose of benzbromarone, plasma and urine by LC/MS/MS; format: in vivo, human; conditions: for detection in the urine: till 72 hours; for concentration at 72 h: male, human, po, 100 mg as benzbromarone
Experimental: Next, clinical pharmacokinetic test was carried out for a case where single dose of benzbromarone was given to healthy male adult subjects.
Results of plasma concentration of 6-hydroxybenzbromarone are shown in FIG. 3 and results of urine concentration of the same are shown in FIG. 4, respectively. The vertical axis of FIG. 3 represents plasma level (ng/mL) and the horizontal axis represents time elapsed (hour). […] The vertical axis of FIG. 4 represents concentration in the urine (ng/mL) and the horizontal axis represents time elapsed (hour).

[3] = Pharmacokinetic test of single dose in rats; format: in vivo; conditions: single dose of 100 mg/kg; for Cmax / AUC(0-t): rat, in vivo, po; for AUC(0-t): read-out: AUC0-24hr
[4] = target: T3, human OAT4 (human organic anion transporter 4) (Homo sapiens, UniProt Q9NSA0); assay: Inhibition of 3H-estrone sulfate uptake by OAT4 in S2 cells; format: cell-based; conditions: S2 cells expressing OAT4
T3 sequence (Q9NSA0 1-550): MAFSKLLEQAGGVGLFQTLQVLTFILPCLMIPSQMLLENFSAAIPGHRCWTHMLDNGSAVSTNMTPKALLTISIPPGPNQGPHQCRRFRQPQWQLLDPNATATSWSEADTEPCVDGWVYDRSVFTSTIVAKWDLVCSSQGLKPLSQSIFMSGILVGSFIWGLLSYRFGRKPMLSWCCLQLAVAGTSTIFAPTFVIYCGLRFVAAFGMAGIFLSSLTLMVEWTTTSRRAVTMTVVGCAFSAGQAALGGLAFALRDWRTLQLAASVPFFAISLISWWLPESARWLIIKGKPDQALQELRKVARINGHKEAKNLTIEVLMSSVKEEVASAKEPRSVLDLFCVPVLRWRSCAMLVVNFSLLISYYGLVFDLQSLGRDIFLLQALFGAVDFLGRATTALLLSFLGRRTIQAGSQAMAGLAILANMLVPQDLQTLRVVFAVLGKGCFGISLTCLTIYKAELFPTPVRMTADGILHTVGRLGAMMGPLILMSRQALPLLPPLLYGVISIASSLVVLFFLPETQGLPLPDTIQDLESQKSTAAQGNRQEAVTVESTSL
Source text: OAT4 is an organic anion transporter which is present at luminal side membrane of the proximal renal tubule and takes organic anion such as uric acid into cells, and estrone sulfate is known as the typical substrate of this. […] Results are shown in FIG. 6 in the form of relative value while the amount of uptake of ^3H-estrone sulfate in a case where nothing is present (control) is considered to be 100%.

[5] = target: T4, human OAT3 (human organic anion transporter 3) (Homo sapiens, UniProt Q8TCC7); assay: Inhibition of 3H-estrone sulfate uptake by OAT3 in S2 cells; format: cell-based; conditions: for Ki: OAT3, 3H-estrone sulfate uptake
T4 construct: expressed in transfected cells; host or cells: S2 cells expressing OAT3
T4 sequence (Q8TCC7 1-542): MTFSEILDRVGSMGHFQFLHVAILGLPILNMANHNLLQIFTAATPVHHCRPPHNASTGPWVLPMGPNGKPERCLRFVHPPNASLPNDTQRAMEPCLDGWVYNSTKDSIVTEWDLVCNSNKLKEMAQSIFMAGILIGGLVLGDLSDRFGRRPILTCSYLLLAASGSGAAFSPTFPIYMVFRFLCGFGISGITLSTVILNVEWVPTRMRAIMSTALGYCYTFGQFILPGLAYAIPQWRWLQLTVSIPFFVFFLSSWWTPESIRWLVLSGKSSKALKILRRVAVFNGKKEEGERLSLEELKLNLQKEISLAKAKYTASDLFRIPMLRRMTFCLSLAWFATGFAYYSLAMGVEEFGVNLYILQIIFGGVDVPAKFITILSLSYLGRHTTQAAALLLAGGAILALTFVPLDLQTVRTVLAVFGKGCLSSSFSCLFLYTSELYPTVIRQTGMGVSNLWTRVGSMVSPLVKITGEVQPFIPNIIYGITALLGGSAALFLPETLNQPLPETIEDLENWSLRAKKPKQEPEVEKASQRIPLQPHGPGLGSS
Experimental: OAT3 is an organic anion transporter which is present at basal-lateral (vascular side) membrane of the proximal renal tubule and takes organic anion such as uric acid into cells, and estrone sulfate is known as the typical substrate of this.
The horizontal axis of FIG. 8 represents 1/S (L/mmol) and the vertical axis represents 1/V (mg protein/μM/min), black square (▪) denotes 6-hydroxybenzbromarone (0.3 μM) case and white square (□) denotes control.

[6] = healthy male adults, single oral 100 mg benzbromarone

T2 sequence (P80457 whole entry): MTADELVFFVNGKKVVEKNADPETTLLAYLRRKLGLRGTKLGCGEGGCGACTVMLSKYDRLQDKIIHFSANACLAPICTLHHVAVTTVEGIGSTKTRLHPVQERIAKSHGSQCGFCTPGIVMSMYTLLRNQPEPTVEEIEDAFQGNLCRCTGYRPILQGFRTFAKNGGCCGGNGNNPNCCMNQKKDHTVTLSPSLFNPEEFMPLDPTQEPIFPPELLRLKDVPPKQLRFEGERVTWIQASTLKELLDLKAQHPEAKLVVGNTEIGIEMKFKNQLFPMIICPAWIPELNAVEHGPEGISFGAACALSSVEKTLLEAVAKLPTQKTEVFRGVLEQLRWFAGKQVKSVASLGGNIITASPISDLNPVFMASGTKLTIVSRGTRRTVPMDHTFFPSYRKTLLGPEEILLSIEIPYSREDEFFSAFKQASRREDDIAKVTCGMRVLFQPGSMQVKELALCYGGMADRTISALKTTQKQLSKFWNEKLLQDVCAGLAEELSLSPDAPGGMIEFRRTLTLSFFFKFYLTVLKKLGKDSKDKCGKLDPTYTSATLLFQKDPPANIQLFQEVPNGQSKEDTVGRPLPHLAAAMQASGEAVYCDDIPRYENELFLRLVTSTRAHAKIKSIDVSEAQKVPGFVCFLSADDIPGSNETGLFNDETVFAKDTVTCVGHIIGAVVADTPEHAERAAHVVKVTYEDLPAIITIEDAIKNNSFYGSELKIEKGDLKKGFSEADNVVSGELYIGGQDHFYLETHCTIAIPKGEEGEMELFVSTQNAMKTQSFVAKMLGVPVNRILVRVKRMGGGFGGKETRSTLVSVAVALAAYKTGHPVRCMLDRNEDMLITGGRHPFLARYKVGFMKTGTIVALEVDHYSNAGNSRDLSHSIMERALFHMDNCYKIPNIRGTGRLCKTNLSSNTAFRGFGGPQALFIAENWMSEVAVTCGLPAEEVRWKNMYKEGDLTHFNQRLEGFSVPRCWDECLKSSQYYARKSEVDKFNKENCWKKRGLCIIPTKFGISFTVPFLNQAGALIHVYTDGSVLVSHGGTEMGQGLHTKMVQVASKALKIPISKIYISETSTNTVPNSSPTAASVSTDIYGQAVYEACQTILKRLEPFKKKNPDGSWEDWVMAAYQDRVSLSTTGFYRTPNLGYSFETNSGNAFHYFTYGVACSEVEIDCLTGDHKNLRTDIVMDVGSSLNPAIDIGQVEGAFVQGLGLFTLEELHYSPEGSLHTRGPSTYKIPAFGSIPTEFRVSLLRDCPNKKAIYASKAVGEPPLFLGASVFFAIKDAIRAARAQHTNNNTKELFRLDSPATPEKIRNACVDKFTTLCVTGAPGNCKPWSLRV

SMILES | IC50 (URAT1; 37° C. 2 min, three experiments, read-out: level of IC50, uric acid uptake by URAT1, after three times experiments) [nM] | IC50 (URAT1; single experiment shown in figure, read-out: level of IC50, uric acid uptake by URAT1 (FIG. 1 / FIG. 2)) [nM] | intensity of uric acid uptake inhibition relative to benzbromarone (URAT1; fraction of that of benzbromarone) | IC50 [1] [nM] | inhibitory activity of xanthine oxidase relative to oxypurinol ([1]; fraction of that of oxypurinol) | AUC in plasma relative to benzbromarone [2, 6] | detection in the urine [2, 6] | concentration at 72 h ([2]; plasma, read-out: plasma concentration 72 hours after administration) [ng/mL] | concentration at 72 h ([2]; urine, read-out: urine concentration 72 hours after administration) [ng/mL] | Cmax [3] [ng/mL] | AUC(0-t) [3] [µg·h/mL] | absorption from the digestive tract into bloodstream [3] | IC50 [4] [nM] | inhibitory style at OAT3 ([5]; 3H-estrone sulfate uptake, 0.3 μM, FIG. 8) | Ki ([5]; FIG. 8, read-out: Ki-value (competitive inhibition)) [nM] | Ki ([5]; FIG. 8, read-out: Ki-value (noncompetitive inhibition)) [nM] | IC50 ([5]; S2 cells expressing OAT3, 3H-estrone sulfate (50 nmol/L)) [nM] | time after administration at which eliminated from plasma [2, 6] [h] | IC50 [5] [nM]
CCc1oc2cc(O)ccc2c1C(=O)c1cc(Br)c(O)c(Br)c1 [6-hydroxybenzbromarone, 2-ethyl-6-hydroxy-3-(3′,5′-dibromo-4′-hydroxy-benzoyl)-benzofuran] | 200 ± 60 | 130 | approximately ⅙ | 68000 | approximately ⅕ | twice or higher level than that of benzbromarone | high level | ~110 | ~170 | 34600 | 291 | absorbed favorably | 3200 | mixed type of competitive inhibition and noncompetitive inhibition | 1000 | 700 | 300 | – | –
CCc1oc2ccccc2c1C(=O)c1cc(Br)c(O)c(Br)c1 [benzbromarone] | – | – | – | – | – | – | detected little in the urine | – | – | 90200 | 887 | – | 5400 | – | – | – | – | 48 | 700
O=c1[nH]c(=O)c2c[nH]nc2[nH]1 [oxypurinol, reference compound] | – | – | – | 13000 | – | – | – | – | – | – | – | – | – | – | – | – | – | – | –
